# Measurements from ChEMBL document CHEMBL5120787, “Selaginellin Inhibits Melanogenesis via the MAPK Signaling Pathway” (J Nat Prod, 2022).
# Calls of active or inactive are those of the source. No cut-off for these calls is given here.
# How the values were obtained:
# [1] = test system: B16-F10; assay: Anti-melanogenic activity against mouse B16-F10 cells at 200 nM; format: functional, cell-based
# [2] = test system: Melan-a; assay: Anti-melanogenic activity against mouse Melan-a cells assessed as decrease in alpha-MSH-induced melanin content at 0.01 to 10 uM incubated for 48 hrs by Fontana-Masson staining based inverted microscopic analysis; format: functional, cell-based; settings: dose 0.01-10 µM
# [3] = test system: MNT-1; assay: Cytotoxicity against human MNT-1 cells assessed as reduction in cell viability upto 10 uM measured after 48 to 72 hrs by MTT assay; format: toxicity, cell-based; settings: mnt-1, 10 µM, time 48-72 hrs
# [4] = Cytotoxicity against mouse Melan-a cells assessed as reduction in cell viability upto 10 uM measured after 48 to 72 hrs by MTT assay; format: toxicity, cell-based; settings: time 48-72 hrs
# [5] = test system: B16-F10; assay: Anti-melanogenic activity against mouse B16-F10 cells assessed as decrease in TYR protein level at 25 to 100 nM measured after 48 hrs by Western blot analysis; format: functional, cell-based; settings: dose 25-100 nM
# [6] = test system: Fibroblast; assay: Anti-melanogenic activity against UVB-induced human fibroblast cells assessed as inhibition of SCF mRNA expression at 10 uM incubated for 24 hrs by qRT-PCR analysis; format: functional, cell-based
# [7] = test system: HaCaT; assay: Anti-melanogenic activity against UVB-induced human HaCaT cells assessed as decrease in SCF protein level at 10 uM incubated for 24 hrs by Western blot analysis; format: functional, cell-based
# [8] = molecular target: Mushroom tyrosinase (Agaricus bisporus, UniProt O42713+Q00024+C7FF04+C7FF05); assay: Inhibition of mushroom tyrosinase using L-DOPA as substrate preincubated with substrate for 10 mins followed by addition of enzyme and measured for 10 mins
# [9] = test system: B16-F10; assay: Inhibition of MAPK signaling pathway in mouse B16-F10 cells assessed as decrease in phosphorylated JNK at 25 to 100 nM for 48 hrs by Western blot analysis; format: cell-based; settings: dose 25-100 nM
# [10] = test system: B16-F10; assay: Inhibition of MAPK signaling pathway in mouse B16-F10 cells assessed as decrease in phosphorylated p38 at 25 to 100 nM for 48 hrs by Western blot analysis; format: cell-based; settings: dose 25-100 nM
# [11] = test system: B16-F10; assay: Anti-melanogenic activity against mouse B16-F10 cells assessed as decrease in […] at 25 to 100 nM incubated for 48 hrs by RBFP based fluorescence microscope analysis; format: functional, cell-based; settings: dose 25-100 nM
# [12] = test system: Fibroblast; assay: Cytotoxicity against human Fibroblast assessed as reduction in cell viability upto 10 uM measured after 48 to 72 hrs by MTT assay; format: toxicity, cell-based; settings: time 48-72 hrs
# [13] = test system: HaCaT; assay: Anti-melanogenic activity against UVB-induced human HaCaT cells assessed as inhibition of LIF mRNA expression at 10 uM incubated for 24 hrs by qRT-PCR analysis; format: functional, cell-based
# [14] = test system: B16-F10; assay: Anti-melanogenic activity against mouse B16-F10 cells at 50 nM; format: functional, cell-based
# [15] = test system: B16-F10; assay: Anti-melanogenic activity against mouse B16-F10 cells assessed as decrease in […] at 25 to 100 nM incubated for 48 hrs; format: functional, cell-based; settings: dose 25-100 nM
# [16] = test system: B16-F10; assay: Cytotoxicity against mouse B16-F10 cells assessed as reduction in cell viability upto 10 uM measured after 48 to 72 hrs by MTT assay; format: toxicity, cell-based; settings: b16-f10, 10 µM, time 48-72 hrs
# [17] = test system: Melan-a; assay: Anti-melanogenic activity against mouse Melan-a cells assessed as alpha-MSH-induced decrease in Tyr activity at 0.01 to 10 uM incubated for 48 hrs by RBFP based fluorescence microscope analysis; format: functional, cell-based; settings: dose 0.01-10 µM
# [18] = test system: Fibroblast; assay: Anti-melanogenic activity against UVB-induced human fibroblast cells assessed as inhibition of LIF mRNA expression at 10 uM incubated for 24 hrs by qRT-PCR analysis; format: functional, cell-based
# [19] = test system: HaCaT; assay: Anti-melanogenic activity against UVB-induced human HaCaT cells assessed as decrease in LIF protein level at 10 uM incubated for 24 hrs by Western blot analysis; format: functional, cell-based
# [20] = test system: B16-F10; assay: Anti-melanogenic activity against mouse B16-F10 cells assessed as decrease in MITF protein level at 25 to 100 nM measured after 48 hrs by Western blot analysis; format: functional, cell-based; settings: dose 25-100 nM
# [21] = test system: HaCaT; assay: Cytotoxicity against human HaCaT cells assessed as reduction in cell viability upto 10 uM measured after 48 to 72 hrs by MTT assay; format: toxicity, cell-based; settings: time 48-72 hrs
# [22] = test system: MNT-1; assay: Anti-melanogenic activity against UVB-induced human MNT-1 cells cocultured with 24 hrs human fibroblast cells supernatant assessed as decrease in melanin content at 10 uM incubated for 48 hrs by Fontana-Masson staining based microscopic analysis; format: functional, cell-based; settings: time 72.0 hrs
# [23] = test system: B16-F10; assay: Anti-melanogenic activity against mouse B16-F10 cells assessed as decrease in RAB27A protein level at 25 to 100 nM measured after 48 hrs by Western blot analysis; format: functional, cell-based; settings: dose 25-100 nM
# [24] = test system: B16-F10; assay: Anti-melanogenic activity against mouse B16-F10 cells assessed as decrease in TRP1 protein level at 25 to 100 nM measured after 48 hrs by Western blot analysis; format: functional, cell-based; settings: dose 25-100 nM
# [25] = test system: B16-F10; assay: Anti-melanogenic activity against mouse B16-F10 cells assessed as decrease in melanin content at 25 to 100 nM incubated for 48 hrs by Fontana-Masson staining based inverted microscopic analysis; format: functional, cell-based; settings: dose 25-100 nM
# [26] = test system: B16-F10; assay: Inhibition of MAPK signaling pathway in mouse B16-F10 cells assessed as decrease in phosphorylated ERK at 25 to 100 nM for 48 hrs by Western blot analysis; format: cell-based; settings: dose 25-100 nM
# [27] = test system: B16-F10; assay: Anti-melanogenic activity against mouse B16-F10 cells assessed as decrease in TRP2 protein level at 25 to 100 nM measured after 48 hrs by Western blot analysis; format: functional, cell-based; settings: dose 25-100 nM
# [28] = test system: Fibroblast; assay: Anti-melanogenic activity against UVB-induced human fibroblast cells assessed as decrease in SCF protein level at 10 uM incubated for 24 hrs by Western blot analysis; format: functional, cell-based
# [29] = test system: Fibroblast; assay: Anti-melanogenic activity against UVB-induced human fibroblast cells assessed as decrease in LIF protein level at 10 uM incubated for 24 hrs by Western blot analysis; format: functional, cell-based
# [30] = test system: HaCaT; assay: Anti-melanogenic activity against UVB-induced human HaCaT cells assessed as inhibition of SCF mRNA expression at 10 uM incubated for 24 hrs by qRT-PCR analysis; format: functional, cell-based
# [31] = test system: MNT-1; assay: Anti-melanogenic activity against UVB-induced human MNT-1 cells cocultured with 24 hrs human HaCaT cells supernatant assessed as decrease in melanin content at 10 uM incubated for 48 hrs by Fontana-Masson staining based microscopic analysis; format: functional, cell-based; settings: time 72.0 hrs
# [32] = test system: Melan-a; assay: Anti-melanogenic activity against mouse Melan-a cells assessed as decrease in alpha-MSH-induced Tyr activity at 0.01 to 10 uM incubated for 48 hrs; format: functional, cell-based; settings: dose 0.01-10 µM
# [33] = test system: MNT-1; assay: Anti-melanogenic activity against human MNT-1 cells assessed as decrease in melanin content at 10 uM incubated for 48 hrs by Fontana-Masson staining based microscopic analysis; format: functional, cell-based
# [34] = species: Danio rerio; assay: Inhibition of melanogenesis in zebra fish embryos assessed as decrease in melanin granule density at 10 to 50 uM measured upto 6 days by inverted microscope analysis; format: functional; settings: dose 10-50 µM, time <= 6.0 day
# [35] = test system: MNT-1; assay: Anti-melanogenic activity against human MNT-1 cells cocultured with 24 hrs compound pretreated human fibroblast cells supernatant assessed as inhibition of SCF mRNA expression at 20 uM and measured after 48 hrs by qRT-PCR analysis; format: functional, cell-based; settings: time 72.0 hrs
# [36] = test system: MNT-1; assay: Anti-melanogenic activity against human MNT-1 cells cocultured with 24 hrs compound pretreated human HaCaT cells supernatant assessed as inhibition of SCF mRNA expression at 20 uM and measured after 48 hrs by qRT-PCR analysis; format: functional, cell-based; settings: time 72.0 hrs
# [37] = test system: MNT-1; assay: Anti-melanogenic activity against human MNT-1 cells cocultured with 24 hrs compound pretreated human fibroblast cells supernatant assessed as inhibition of LIF protein expression at 20 uM and measured after 48 hrs by Western blot analysis; format: functional, cell-based; settings: time 72.0 hrs
# [38] = test system: MNT-1; assay: Anti-melanogenic activity against human MNT-1 cells cocultured with 24 hrs compound pretreated human fibroblast cells supernatant assessed as decrease in melanin content at 20 uM and measured after 48 hrs by Fontana-Masson staining based microscopic analysis; format: functional, cell-based; settings: time 72.0 hrs
# [39] = test system: MNT-1; assay: Anti-melanogenic activity against human MNT-1 cells cocultured with 24 hrs compound pretreated human HaCaT cells supernatant assessed as decrease in melanin content at 20 uM and measured after 48 hrs by Fontana-Masson staining based microscopic analysis; format: functional, cell-based; settings: time 72.0 hrs
# [40] = test system: MNT-1; assay: Anti-melanogenic activity against human MNT-1 cells cocultured with 24 hrs compound pretreated human HaCaT cells supernatant assessed as inhibition of LIF mRNA expression at 20 uM and measured after 48 hrs by qRT-PCR analysis; format: functional, cell-based; settings: time 72.0 hrs
# [41] = test system: MNT-1; assay: Anti-melanogenic activity against human MNT-1 cells cocultured with 24 hrs compound pretreated human HaCaT cells supernatant assessed as inhibition of SCF protein expression at 20 uM and measured after 48 hrs by Western blot analysis; format: functional, cell-based; settings: time 72.0 hrs
# [42] = test system: MNT-1; assay: Anti-melanogenic activity against human MNT-1 cells cocultured with 24 hrs compound pretreated human HaCaT cells supernatant assessed as inhibition of LIF protein expression at 20 uM and measured after 48 hrs by Western blot analysis; format: functional, cell-based; settings: time 72.0 hrs
# [43] = test system: MNT-1; assay: Anti-melanogenic activity against human MNT-1 cells cocultured with 24 hrs compound pretreated human fibroblast cells supernatant assessed as inhibition of LIF mRNA expression at 20 uM and measured after 48 hrs by qRT-PCR analysis; format: functional, cell-based; settings: time 72.0 hrs
# [44] = test system: MNT-1; assay: Anti-melanogenic activity against human MNT-1 cells cocultured with 24 hrs compound pretreated human fibroblast cells supernatant assessed as inhibition of SCF protein expression at 20 uM and measured after 48 hrs by Western blot analysis; format: functional, cell-based; settings: time 72.0 hrs
structure (smiles),measurement,setting,value
O=c1cc(CO)occ1O,Activity,[1],Active
O=C1C=CC(=C(c2ccc(O)cc2)c2c(-c3ccc(O)cc3)ccc(CO)c2C#Cc2ccc(O)cc2)C=C1,Activity,[2],Active
same,Activity,[3],Non-Toxic
same,Activity,[4],Non-Toxic
same,Activity,[5],Active
same,Activity,[6],Active
same,Activity,[7],Active
same,IC50,[8],9.24 µM
same,inhibition,[9],Active
same,inhibition,[10],Active
same,Activity,[11],Active
same,Activity,[12],Non-Toxic
same,Activity,[13],Active
same,Activity,[14],Active
same,Activity,[15],Active
same,Activity,[16],Non-Toxic
same,Activity,[17],Active
same,Activity,[18],Active
same,Activity,[19],Active
same,Activity,[20],Active
same,Activity,[21],Non-Toxic
same,Activity,[22],Active
same,Activity,[23],Active
same,Activity,[24],Active
same,Activity,[25],Active
same,inhibition,[26],Active
same,Activity,[27],Active
same,Activity,[28],Active
same,Activity,[29],Active
same,Activity,[30],Active
same,Activity,[31],Active
same,Activity,[32],Active
same,Activity,[33],Active
NC(=S)Nc1ccccc1,inhibition,[34],Active
COc1ccc(-c2cc(=O)c3c(OC)c(OC)c(OC)c(OC)c3o2)cc1OC,Activity,[35],Active
same,Activity,[36],Active
same,Activity,[37],Active
same,Activity,[38],Active
same,Activity,[39],Active
same,Activity,[40],Active
same,Activity,[41],Active
same,Activity,[42],Active
same,Activity,[43],Active
same,Activity,[44],Active
